Measured values as given in US12171760B2, “Use of glucocorticoid receptor modulators to potentiate checkpoint inhibitors” (Corcept Therapeutics Incorporated, priority 2016, dated 2024).

Key:
mouse A20 cancer cells = assay: A20 tumor growth in mice, combination of CORT125281 and anti PD-1; assay type: in vivo; details: CORT125281 30 mg/kg orally daily in combination with mouse anti PD-1 antibody (clone RPM1-14, 10 mg/kg) i.p. twice a week; C57BL/6 mice, s.c. A20 tumors; FIG. 2
Method: (§1) Suspensions of mouse A20 cancer cells were injected subcutaneously into the left flank of 5-6 week old immunocompetent female mice (C57BL/6), ½ million cells per mouse. Tumors were allowed to grow until they reached a volume of 100 mm^3. Mice were then grouped into three groups, ten (10) per group. Group I was dosed with the anti-PD-1 vehicle (PBS, 10 ml/kg) i. p. twice a week and the CORT125281 vehicle p.o. (10% DMSO, 0.1% Tween 80 and 89.9% HPMC (0.5%), 10 ml/kg) daily. Group II was dosed with the mouse anti PD-1 antibody (clone RPM1-14, 10 mg/kg) i. p. twice a week. Group III was dosed with the mouse anti PD-1 antibody (clone RPM1-14, 10 mg/kg) i. p. twice a week and CORT125281 (a SGRM) (30 mg/kg) orally on a daily basis.
The longest (L) and shortest (S) diameters of the tumors were measured three times a week with electronic calipers and tumor volume was calculated using the formula for an ellipsoid sphere: S^2×L×(0.5). The tumor growth data are shown in FIG. 2, in which the mean tumor volume for each group of mice is plotted against the number of days of tumor growth since initiation of the treatment.

mouse CT26 cancer cells = assay: CT26 tumor growth in mice, combination of CORT125134 or CORT125281 and anti CTLA4; assay type: in vivo; details: SGRM 30 mg/kg orally daily in combination with mouse anti CTLA4 antibody (clone 9D9, 10 mg/kg) i.p. twice a week; C57BL/6 mice, s.c. CT26 tumors; FIG. 3
Method: Suspensions of mouse CT26 cancer cells were injected subcutaneously into the left flank of 6-7 week old immunocompetent female mice (C57BL/6), ½ million cells per mouse. Tumors were allowed to grow until they reached a volume of 50-100 mm^3. Mice were then grouped into three groups, ten (10) per group. Group I was dosed with the anti-CTLA4 vehicle (PBS, 10 ml/kg) i. p. twice a week and the CORT125134 vehicle p.o. (10% DMSO, 0.1% Tween 80 and 89.9% HPMC (0.5%), 10 ml/kg) daily. Group II was dosed with the mouse anti CTLA4 antibody (clone 9D9, 10 mg/kg) i. p. twice a week. Group III was dosed with the mouse anti CTLA4 antibody (clone 9D9, 10 mg/kg) i. p. twice a week and CORT125134 (a SGRM) (30 mg/kg) orally on a daily basis. Group IV was dosed with the mouse anti CTLA4 antibody (clone 9D9, 10 mg/kg) i. p. twice a week and CORT125281 (a SGRM) (30 mg/kg) orally on a daily basis.
The longest (L) and shortest (S) diameters of the tumors were measured three times a week with electronic calipers and tumor volume was calculated using the formula for an ellipsoid sphere: S^2×L×(0.5). The tumor growth data are shown in FIG. 3, in which the mean tumor volume for each group is plotted against the number of days of tumor growth since initiation of the treatment.

breast cancer = assay: Treating a breast cancer patient with the combination therapy (tumor load by enhanced magnetic resonance imaging); assay type: in vivo, human; details: CORT125134 200 mg once a day for eight weeks with pembrolizumab 3 mg/kg every 2 weeks
Method: A patient suffering from breast cancer is treated with pembrolizumab at a dose of 3 mg/kg every 2 weeks and CORT125134 at a dose of 200 mg once a day for eight weeks. Their tumor load is monitored using enhanced magnetic resonance imaging before, during and after the treatment.

mouse MC38 cancer cells = assay: MC38 tumor growth in mice, combination of CORT125134 and anti PD-1; assay type: in vivo; details: CORT125134 30 mg/kg orally daily in combination with mouse anti PD-1 antibody (clone RPM1-14, 10 mg/kg) i.p. twice a week; C57BL/6 mice, s.c. MC38 tumors; FIG. 1
Method: as §1, with “MC38” for “A20”, “1” for “½”, “reach” for “reached”, “CORT125134” for “CORT125281”, “basis. The longest (L) and shortest (S) diameters of the tumors were measured three times a week with electronic calipers and tumor volume was calculated using the formula for an ellipsoid sphere: S^2×L×(0.5). The tumor growth data are shown in FIG. 1, in which the mean tumor volume as compared to the mean pre-dosing tumor volume for each group of mice is plotted against the number of days of tumor growth since initiation of the treatment.” for “basis.”

| Compound | reducing tumor growth (mean tumor volume) (mouse A20 cancer cells) | reducing tumor growth (mean tumor volume) (mouse CT26 cancer cells) | reduction of the size of the tumor at the end of the treatment period (breast cancer) | reducing tumor growth (mean tumor volume as compared to the mean pre-dosing tumor volume) (mouse MC38 cancer cells) |
| --- | --- | --- | --- | --- |
| Cn1ncc(S(=O)(=O)N2CC[C@H]3Cc4c(cnn4-c4ccc(F)cc4)C[C@]3(C(=O)c3cc(C(F)(F)F)ccn3)C2)n1 [CORT125281, ((4aR,8aS)-1-(4-fluorophenyl)-6-((2-methyl-2H-1,2,3-triazol-4-yl)sulfonyl)-4,4a,5,6,7,8,8a,9-octahydro-1H-pyrazolo[3,4-g]isoquinolin-4a-yl)(4-(trifluoromethyl)pyridin-2-yl)methanone] | superior to both the anti PD-1 group and the vehicle group in reducing tumor growth | superior to both the anti CTLA4 group and the vehicle group in reducing tumor growth | – | – |
| Cn1cc(S(=O)(=O)N2CCC3=Cc4c(cnn4-c4ccc(F)cc4)C[C@]3(C(=O)c3cc(C(F)(F)F)ccn3)C2)cn1 [CORT125134, (R)-(1-(4-fluorophenyl)-6-((1-methyl-1H-pyrazol-4-yl)sulfonyl)-4,4a,5,6,7,8-hexahydro-1H-pyrazolo[3,4-g]isoquinolin-4a-yl)(4-(trifluoromethyl)pyridin-2-yl)methanone] | – | superior to both the anti CTLA4 group and the vehicle group in reducing tumor growth | more than 20% | superior to both the anti PD-1 group and the vehicle group in reducing tumor growth |
